Among the data in PubChem BioAssay AID220 (DTP/NCI, 2004) are T/C values, retold here.

Where “and” joins values, the source holds several entries; their conditions need not be identical. Equal entries are not always repeated. Results filed as inconclusive are left out.

This assay has as its system CD8F1 mice, subcutaneous mammary adenocarcinoma, T/C%. In words: NCI In Vivo Anticancer Drug Screen. Data for tumor model Mammary Adenocarcinoma CD8F1 (subcutaneous) in CD8F1. The settings on record: higher = larger tumour. The essentials:
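Antitumor activity is assessed in transplantable-tumor mice by comparing the treated group with a vehicle-treated control group. Survival or tumor size serves as the measure, reported as T divided by C.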

Setting [1] is: endpoint: median tumor weight (est.), dose: 25.0 mg/kg/injection, schedule: Q07DX005 (ip), vehicle: saline.
Setting [2] is: endpoint: median tumor weight (est.), dose: 50.0 mg/kg/injection, schedule: Q07DX005 (ip), vehicle: saline.
The mark [3] stands for this setting: endpoint: median tumor weight (est.), dose: 100.0 mg/kg/injection, schedule: Q07DX005 (ip), vehicle: saline.
Where [4] appears, read: endpoint: median tumor weight change, dose: 62.5 mg/kg/injection, schedule: Q01DX001 (ip), vehicle: saline with Tween-80.
The mark [5] stands for this setting: endpoint: median tumor weight (est.), dose: 100.0 mg/kg/injection, schedule: Q07DX005 (ip), vehicle: Klucel (hydroxypropylcellulose) (HPC).
The mark [6] stands for this setting: endpoint: median tumor weight (est.), dose: 200.0 mg/kg/injection, schedule: Q07DX005 (ip), vehicle: Klucel (hydroxypropylcellulose) (HPC).
The mark [7] stands for this setting: endpoint: median tumor weight (est.), dose: 12.5 mg/kg/injection, schedule: Q07DX005 (ip), vehicle: Klucel (hydroxypropylcellulose) (HPC).
Setting [8] is: endpoint: median tumor weight (est.), dose: 25.0 mg/kg/injection, schedule: Q07DX005 (ip), vehicle: Klucel (hydroxypropylcellulose) (HPC).
[9] abbreviates: endpoint: median tumor weight (est.), dose: 50.0 mg/kg/injection, schedule: Q07DX005 (ip), vehicle: Klucel (hydroxypropylcellulose) (HPC).
Where [10] appears, read: endpoint: median tumor weight (est.), dose: 25.0 mg/kg/injection, schedule: Q07DX005 (ip), vehicle: saline with Tween-80.
Where [11] appears, read: endpoint: median tumor weight (est.), dose: 50.0 mg/kg/injection, schedule: Q07DX005 (ip), vehicle: saline with Tween-80.

As to `CCCC(=O)Nc1ncnc2c1ncn2C1OC2COP(=O)(O)OC2C1OC(=O)CCC` (stereo unspecified), the T/C (endpoint: mean tumor weight, dose: 50.0 mg/kg/injection, schedule: Q01DX009 (ip), vehicle: saline) was 100 % of control; the T/C (endpoint: mean tumor weight, dose: 100.0 mg/kg/injection, schedule: Q07DX007 (ip), vehicle: saline) was 117 % of control; the T/C (endpoint: mean tumor weight, dose: 200.0 mg/kg/injection, schedule: Q01DX009 (ip), vehicle: saline) was 111 % of control; the T/C (endpoint: mean tumor weight, dose: 200.0 mg/kg/injection, schedule: Q07DX007 (ip), vehicle: saline) was 78 % of control; the T/C (endpoint: mean tumor weight, dose: 400.0 mg/kg/injection, schedule: Q01DX009 (ip), vehicle: saline) was 55 % of control; the T/C (endpoint: mean tumor weight, dose: 400.0 mg/kg/injection, schedule: Q07DX007 (ip), vehicle: saline) is 43 % of control. Besides, the T/C was 75 % of control under setting [1]; 114 % of control under setting [2]; 122 % of control under setting [3]; 77 % of control (endpoint: median tumor weight (est.), dose: 200.0 mg/kg/injection, schedule: Q07DX005 (ip), vehicle: saline); 83 % of control (endpoint: median tumor weight (est.), dose: 400.0 mg/kg/injection, schedule: Q07DX005 (ip), vehicle: saline); 72 % of control (endpoint: median tumor weight (est.), dose: 800.0 mg/kg/injection, schedule: Q07DX005 (ip), vehicle: saline).
For `Cn1c2ccccc2c2ccc3c(c21)C(=O)C=CC3=O`, the T/C under setting [4] is 38 % of control.
For the molecule `C[n+]1ccc2cc(N)c3c4ccccc4sc3c2c1`, the T/C was 83 % of control (endpoint: median tumor weight (est.), dose: 1.56 mg/kg/injection, schedule: Q07DX004 (ip), vehicle: saline with Tween-80); 121 % of control (endpoint: median tumor weight (est.), dose: 3.12 mg/kg/injection, schedule: Q07DX004 (ip), vehicle: saline with Tween-80); 65 % of control (endpoint: median tumor weight (est.), dose: 6.25 mg/kg/injection, schedule: Q07DX004 (ip), vehicle: saline with Tween-80); 105 % of control (endpoint: median tumor weight (est.), dose: 12.5 mg/kg/injection, schedule: Q07DX004 (ip), vehicle: saline with Tween-80); 110 % of control (endpoint: median tumor weight (est.), dose: 25.0 mg/kg/injection, schedule: Q07DX004 (ip), vehicle: saline with Tween-80).
For `COC1=CC(=O)N(C(=O)C2CSC(C(CO)NC(=O)c3csc(/C=N/O)n3)=N2)C1` (stereo unspecified), the T/C by setting is: under setting [5], 83 % of control; under setting [6], 102 % of control; (endpoint: median tumor weight (est.), dose: 400.0 mg/kg/injection, schedule: Q07DX005 (ip), vehicle: Klucel (hydroxypropylcellulose) (HPC)) 100 % of control.
Turning to `CC(=O)c1cccc(NC2C(N)C(NC(=O)N(C)C)(C(C)O)C(C)(O)C2(O)COC(=O)c2c(C)cccc2O)c1` (stereo unspecified), the T/C is 162 % of control (endpoint: median tumor weight (est.), dose: 1.0 mg/kg/injection, schedule: Q07DX005 (ip), vehicle: suspension in saline); 67 % of control and 77 % of control (endpoint: median tumor weight (est.), dose: 1.8 mg/kg/injection, schedule: Q07DX005 (ip), vehicle: saline with Tween-80); 78 % of control (endpoint: median tumor weight (est.), dose: 2.0 mg/kg/injection, schedule: Q07DX005 (ip), vehicle: suspension in saline); 72 % of control and 93 % of control (endpoint: median tumor weight (est.), dose: 3.6 mg/kg/injection, schedule: Q07DX005 (ip), vehicle: saline with Tween-80); 78 % of control (endpoint: median tumor weight (est.), dose: 4.0 mg/kg/injection, schedule: Q07DX005 (ip), vehicle: suspension in saline); 55 % of control and 78 % of control (endpoint: median tumor weight (est.), dose: 7.2 mg/kg/injection, schedule: Q07DX005 (ip), vehicle: saline with Tween-80). The T/C is, setting by setting: (endpoint: median tumor weight (est.), dose: 8.0 mg/kg/injection, schedule: Q07DX005 (ip), vehicle: suspension in saline) 119 % of control; (endpoint: median tumor weight (est.), dose: 14.4 mg/kg/injection, schedule: Q07DX005 (ip), vehicle: saline with Tween-80) 23 % of control and 44 % of control.
For `COc1ccc(S(=O)(=O)N=N/C=C2\C=CC=CN2O)cc1OC`, the T/C runs as follows: (endpoint: median tumor weight change, dose: 31.25 mg/kg/injection, schedule: Q01DX001 (ip), vehicle: saline with Tween-80) 60 % of control; under setting [4], 87 % of control; (endpoint: median tumor weight change, dose: 250.0 mg/kg/injection, schedule: Q01DX001 (ip), vehicle: saline with Tween-80) 106 % of control.
With `O=[N+]([O-])/C=C\c1ccc2c(c1)OCO2`, the T/C was 102 % of control (endpoint: median tumor weight (est.), dose: 6.25 mg/kg/injection, schedule: Q07DX005 (ip), vehicle: Klucel (hydroxypropylcellulose) (HPC)); 59 % of control under setting [7]; 86 % of control under setting [8]; 60 % of control under setting [9]; 55 % of control under setting [5]; 83 % of control under setting [6].
As for `[I][Hg][CH2]C1OCCOC1[CH2][Hg][I]` (stereo unspecified), the T/C under setting [7] was 96 % of control; the T/C under setting [8] was 100 % of control; the T/C under setting [9] was 85 % of control; the T/C under setting [5] was 76 % of control; the T/C under setting [6] was 52 % of control.
Take `CC1(C)OC2C(COC(=O)c3ccc([N+](=O)[O-])cc3)OC(NC(=O)N(CCCl)N=O)C2O1` (stereo unspecified): the T/C was 46 % of control (endpoint: median tumor weight (est.), dose: 1.25 mg/kg/injection, schedule: Q07DX005 (ip), vehicle: saline with Tween-80); 51 % of control under setting [10]; 16 % of control under setting [11]; 36 % of control (endpoint: median tumor weight (est.), dose: 100.0 mg/kg/injection, schedule: Q07DX005 (ip), vehicle: saline with Tween-80).
For the molecule `COC1C(C)OC(OC2CC(C)(O)Cc3cc4c(c(O)c32)C(=O)c2c(O)cc3c(c2C4=O)OC2OC3(C)C(O)C(N(C)C)C2O)C(OC)C1(C)OC` (stereo unspecified), the T/C by setting is: (endpoint: median tumor weight (est.), dose: 2.5 mg/kg/injection, schedule: Q07DX005 (ip), vehicle: other) 161 % of control; (endpoint: median tumor weight (est.), dose: 5.0 mg/kg/injection, schedule: Q07DX005 (ip), vehicle: other) 94 % of control; (endpoint: median tumor weight (est.), dose: 10.0 mg/kg/injection, schedule: Q07DX005 (ip), vehicle: other) 57 % of control.
As to `COc1cc(O)c2c(O)c3c(c4c2c1[C@]1(C4)C(C)=CCCC1(C)C)[C@H](O)[C@@]1(O)CC(=O)C(C(N)=O)=C(O)[C@@]1(O)C3=O`, the T/C by setting is: (endpoint: median tumor weight (est.), dose: 6.25 mg/kg/injection, schedule: Q07DX005 (ip), vehicle: saline with Tween-80) 56 % of control; (endpoint: median tumor weight (est.), dose: 6.25 mg/kg/injection, schedule: Q07DX005 (ip), vehicle: saline) 47 % of control; (endpoint: median tumor weight (est.), dose: 12.5 mg/kg/injection, schedule: Q07DX005 (ip), vehicle: saline with Tween-80) 92 % of control; (endpoint: median tumor weight (est.), dose: 12.5 mg/kg/injection, schedule: Q07DX005 (ip), vehicle: saline) 58 % of control; under setting [10], 95 % of control; under setting [1], 87 % of control. The T/C by setting is: under setting [11], 89 % of control; under setting [2], 81 % of control; under setting [3], 37 % of control.
Turning to `COc1cccc2c1C(=O)c1c(O)c3c(c(O)c1C2=O)C[C@@](O)(C(=O)CO)C[C@@H]3OC1CC(N)CC(C)O1` (stereo partly specified), the T/C runs as follows: (endpoint: median tumor weight change, dose: 1.8 mg/kg/injection, schedule: Q01DX001 (ip), vehicle: water) 187 % of control; (endpoint: median tumor weight change, dose: 3.75 mg/kg/injection, schedule: Q01DX001 (ip), vehicle: water) 94 % of control.
In the case of `COc1cc2c(c(OC)c1O)-c1ccc(OC)c(=O)cc1[C@@H](NC(=O)C(F)(F)F)CC2`, the T/C (endpoint: median tumor weight change, dose: 3.12 mg/kg/injection, schedule: Q01DX001 (ip), vehicle: Klucel (hydroxypropylcellulose) (HPC)) was 100 % of control; the T/C (endpoint: median tumor weight change, dose: 6.25 mg/kg/injection, schedule: Q01DX001 (ip), vehicle: Klucel (hydroxypropylcellulose) (HPC)) was 203 % of control; the T/C (endpoint: median tumor weight change, dose: 12.5 mg/kg/injection, schedule: Q01DX001 (ip), vehicle: Klucel (hydroxypropylcellulose) (HPC)) is 74 % of control; the T/C (endpoint: median tumor weight change, dose: 25.0 mg/kg/injection, schedule: Q01DX001 (ip), vehicle: Klucel (hydroxypropylcellulose) (HPC)) is 168 % of control; the T/C (endpoint: median tumor weight change, dose: 50.0 mg/kg/injection, schedule: Q01DX001 (ip), vehicle: Klucel (hydroxypropylcellulose) (HPC)) was 21 % of control.
